Series [1] can be described thus: Polarity index (interfacial tension of the oil with respect to water). It is filed as physicochemical. Conditions: for polarity index: Table 1, printed under the ingredient name; for polarity index mN/m: Table 2. An excerpt: The term “polarity index” is a parameter which is known to the person skilled in the art. The polarity of an oil is defined as the polarity index (interfacial tension) of the oil with respect to water. The interfacial tension, i. e. the polarity index, can be particularly determined using a ring tensiometer (e.g., Krüss K 10), which measures the interfacial tension in mN/m in analogy to the ASTM method D971-99a (2004).

The nature of series [2]: Particle size by laser diffraction (Malvern Mastersizer 2000) and/or Coulter Delsa Nano S. In kind it is physicochemical. An excerpt:
The term ‘mean particle size’ as used herein refers to the mean number-based particle size distribution Dn50 (also known as Dn0.5) as determined by laser diffraction e.g. with a Malvern Mastersizer 2000 (ISO 13320:2009).
All particles sizes have been determined by laser diffraction with a Malvern Mastersizer 2000 according to the method as outlined in ISO 13320:2009 and/or a Coulter Delsa Nano S (dynamic laser scattering).

`CCCCCCCCCCCCCC(C)C` [Isohexadecane]: in series [1], the polarity index result was “(polarity index 43.8 mN/m)” and the “polarity index mN/m” value was determined as 43.8 mN/m.

Regarding Isocetyl Stearate, the “polarity index mN/m” value in series [1] turned out to be 36.2 mN/m. Consider `c1ccc2oc(-c3ccc(-c4nc5ccccc5o4)cc3)nc2c1` [DBO-400 (A), 1,4-di(benzoxazol-2′-yl)benzene], for which the “Particle size Dn50” value in series [2] worked out at 380 nm. Regarding `CC(C)OC(=O)CCCCC(=O)OC(C)C` [Diiso propyl adipate, Diisopropyl Adipate], in series [1], the polarity index is 11.6 mN/m) and the “polarity index mN/m” value worked out at 11.6 mN/m.

The record behind these values is patent US11931444B2, “Topical composition” (DSM IP Assets B.V., priority 2018, dated 2024).
